For six compounds, IC50 results are on record in patent publication US20210253642A1, “CALPAIN MODULATORS AND THERAPEUTIC USES THEREOF BACKGROUND” (Blade Therapeutics, Inc., priority 2018, published 2021).

What all share (assay type): biochemical
One experiment concerns the target T1, Human Cathepsin S (Homo sapiens, UniProt P25774).
T1 construct: purchased
The experiment in a line: Cathepsin continuous fluorescence inhibition assay. Conditions: Column F; enzyme 6 nM, substrate 1 uM, pH 4.5, 30 minutes pre-incubation with inhibitor. Here is the method:
(§1) Cathepsin activity and inhibition thereof was assessed by means of a continuous fluorescence assay. All assays were run in 384 well format and utilized peptide substrates that liberate fluorescence upon protease catalyzed cleavage. FLIPR plate readers (Molecular Devices Inc.) were used to monitor reactions and extract initial rates which were then fit (four parameter logistic function) to obtain IC50 values. All enzymes are human. All enzymes and reagents were obtained commercially and are summarized in Tables 1 and 2 below along with assay conditions.

The next experiment has as its target T2, Human Cathepsin L (Homo sapiens, UniProt P07711).
T2 construct: purchased
The experiment in a line: Cathepsin continuous fluorescence inhibition assay. The settings on record: Column G; enzyme 0.025 nM, substrate 1 uM, pH 6.0, 30 minutes pre-incubation with inhibitor. On the procedure:
as §1

For the next experiment, the target named is T3, Human Cathepsin B (Homo sapiens, UniProt P07858).
T3 construct: purchased
Nature of the experiment: Cathepsin continuous fluorescence inhibition assay. The settings on record: Column D; enzyme 25 nM, substrate 1 uM, pH 5.0, 30 minutes pre-incubation with inhibitor. Here is the method: as §1

For a further experiment, the target named is T4, Human Cathepsin K (Homo sapiens, UniProt P43235).
T4 construct: purchased
T4 sequence (P43235 115-329): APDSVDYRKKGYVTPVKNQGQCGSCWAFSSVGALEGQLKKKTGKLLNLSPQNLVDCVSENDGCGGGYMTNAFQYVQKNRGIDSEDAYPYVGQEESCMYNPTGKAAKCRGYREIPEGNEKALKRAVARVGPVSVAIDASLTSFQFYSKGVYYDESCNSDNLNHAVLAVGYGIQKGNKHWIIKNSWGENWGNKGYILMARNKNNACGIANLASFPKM
The experiment in a line: Cathepsin continuous fluorescence inhibition assay. The settings on record: Column E; enzyme 10 nM, substrate 1 uM, pH 5.5, 30 minutes pre-incubation with inhibitor. On the procedure: as §1

Another experiment deals with T5, Human Calpain 1/NS1 (Homo sapiens, UniProt P07384).
T5 sequence (P07384 1-714): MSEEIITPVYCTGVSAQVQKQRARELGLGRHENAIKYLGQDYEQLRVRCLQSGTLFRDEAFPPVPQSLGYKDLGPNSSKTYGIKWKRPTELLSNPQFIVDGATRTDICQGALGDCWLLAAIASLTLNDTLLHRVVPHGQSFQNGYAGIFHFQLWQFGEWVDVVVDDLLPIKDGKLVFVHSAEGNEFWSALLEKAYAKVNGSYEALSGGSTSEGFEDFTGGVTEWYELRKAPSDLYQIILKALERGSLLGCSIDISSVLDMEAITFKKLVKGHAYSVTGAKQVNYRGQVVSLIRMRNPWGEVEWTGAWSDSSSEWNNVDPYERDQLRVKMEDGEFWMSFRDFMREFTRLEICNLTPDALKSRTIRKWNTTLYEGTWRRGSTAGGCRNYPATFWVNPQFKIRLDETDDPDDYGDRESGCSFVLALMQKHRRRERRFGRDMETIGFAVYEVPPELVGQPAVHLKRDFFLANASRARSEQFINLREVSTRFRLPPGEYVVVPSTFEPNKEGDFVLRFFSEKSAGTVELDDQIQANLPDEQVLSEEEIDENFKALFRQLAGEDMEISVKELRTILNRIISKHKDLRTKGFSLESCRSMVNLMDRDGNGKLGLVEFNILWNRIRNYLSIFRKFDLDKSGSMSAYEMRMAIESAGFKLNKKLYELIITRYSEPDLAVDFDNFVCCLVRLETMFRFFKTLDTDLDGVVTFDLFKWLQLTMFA
T5 sequence (P04632 1-268 partner): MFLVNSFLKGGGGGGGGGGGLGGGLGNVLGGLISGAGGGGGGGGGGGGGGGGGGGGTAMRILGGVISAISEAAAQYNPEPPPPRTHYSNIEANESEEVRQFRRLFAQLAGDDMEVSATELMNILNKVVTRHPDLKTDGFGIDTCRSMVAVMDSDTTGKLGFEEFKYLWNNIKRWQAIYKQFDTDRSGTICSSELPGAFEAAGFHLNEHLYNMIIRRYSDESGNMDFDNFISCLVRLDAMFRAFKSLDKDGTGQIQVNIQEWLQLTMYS
Nature of the experiment: Calpain continuous fluorescence (FRET) inhibition assay. Conditions: Column A; SensoLyte 520 FRET substrate, pH 7.5, 25C. On the procedure: (§2) Calpain 1, 2, and 9 activity and inhibition thereof was assessed by means of a continuous fluorescence assay. The SensoLyte 520 Calpain substrate (Anaspec Inc.) was optimized for detecting calpain activity. This substrate contains an internally quenched 5-FAM/QXLTM 520 FRET pair. Calpains 1, 2, and 9 cleave the FRET substrate into two separate fragments resulting in an increase of 5-FAM fluorescence that is proportional to calpain activity
(§3) Assays were typically setup in black 384-well plates using automated liquid handling as follows. Calpain assay base buffer typically contains 50 mM Tris, pH 7.5, 100 mM NaCl and 1 mM DTT. Inhibitors were serially diluted in DMSO and used to setup 2× mixtures with calpains in the aforementioned buffer. After incubation at ambient temperature (25C), the reaction was initiated by adding a 2× mix of the fluorescent peptide substrate and CaCl2) (required for in-situ calpain activation) in the same buffer. Reaction progress curve data were typically collected for 10 min using excitation/emission wavelengths of 490 nm/520 nm on SpectraMax i3x or the FLIPR-Tetra plate readers (Molecular Devices Inc.). Reaction rates were calculated from progress curve slopes typically over 1-5 min. Dose response curves (rate vs. log inhibitor concentration) were typically fit to a 4-parameter logistic function to extract IC50 values.

Another experiment addresses T6, Human Calpain 9/NS1 (Homo sapiens, UniProt O14815).
T6 sequence (O14815 1-690): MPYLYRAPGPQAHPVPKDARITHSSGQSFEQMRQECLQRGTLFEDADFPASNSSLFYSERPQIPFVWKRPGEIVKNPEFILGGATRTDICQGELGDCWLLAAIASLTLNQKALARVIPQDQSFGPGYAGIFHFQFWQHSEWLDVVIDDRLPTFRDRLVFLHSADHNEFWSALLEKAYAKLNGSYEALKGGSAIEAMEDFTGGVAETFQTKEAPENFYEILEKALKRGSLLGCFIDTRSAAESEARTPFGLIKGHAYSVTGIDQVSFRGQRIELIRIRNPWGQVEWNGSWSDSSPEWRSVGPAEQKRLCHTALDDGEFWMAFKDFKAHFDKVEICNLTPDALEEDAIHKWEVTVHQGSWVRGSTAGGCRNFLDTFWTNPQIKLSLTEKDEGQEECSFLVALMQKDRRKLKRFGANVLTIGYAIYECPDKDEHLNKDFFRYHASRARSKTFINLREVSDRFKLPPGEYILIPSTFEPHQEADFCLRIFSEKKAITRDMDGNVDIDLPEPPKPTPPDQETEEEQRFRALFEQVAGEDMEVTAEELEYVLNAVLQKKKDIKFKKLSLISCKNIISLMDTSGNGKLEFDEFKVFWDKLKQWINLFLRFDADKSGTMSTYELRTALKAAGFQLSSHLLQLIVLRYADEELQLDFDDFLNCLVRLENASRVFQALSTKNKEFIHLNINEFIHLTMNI
T6 sequence (P04632 1-268 partner): T5 sequence (P04632 1-268 partner)
The experiment is described as above. The settings on record: Column C; SensoLyte 520 FRET substrate, pH 7.5, 25C. Here is the method:
as §2, §3

For the next experiment, the target named is T7, Human Calpain 2/NS1 (Homo sapiens, UniProt P17655).
T7 sequence (P17655 1-700): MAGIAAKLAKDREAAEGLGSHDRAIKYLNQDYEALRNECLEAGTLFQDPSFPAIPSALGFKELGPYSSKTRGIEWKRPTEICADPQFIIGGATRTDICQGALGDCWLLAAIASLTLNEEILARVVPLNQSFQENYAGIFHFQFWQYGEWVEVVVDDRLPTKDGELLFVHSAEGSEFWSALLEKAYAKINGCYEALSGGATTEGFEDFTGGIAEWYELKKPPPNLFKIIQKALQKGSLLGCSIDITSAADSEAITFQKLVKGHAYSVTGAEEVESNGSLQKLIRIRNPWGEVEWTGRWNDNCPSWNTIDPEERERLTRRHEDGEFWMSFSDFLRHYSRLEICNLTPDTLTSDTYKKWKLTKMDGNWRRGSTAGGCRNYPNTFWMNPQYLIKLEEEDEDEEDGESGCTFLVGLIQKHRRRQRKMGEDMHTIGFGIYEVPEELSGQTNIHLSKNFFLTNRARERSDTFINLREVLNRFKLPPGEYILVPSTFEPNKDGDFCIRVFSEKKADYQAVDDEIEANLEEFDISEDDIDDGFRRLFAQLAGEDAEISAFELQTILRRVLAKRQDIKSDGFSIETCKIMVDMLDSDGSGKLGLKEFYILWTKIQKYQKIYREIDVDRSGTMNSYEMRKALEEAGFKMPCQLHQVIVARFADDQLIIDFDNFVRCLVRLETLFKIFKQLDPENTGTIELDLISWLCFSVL
T7 sequence (P04632 1-268 partner): T5 sequence (P04632 1-268 partner)
Described as above. The settings on record: Column B; SensoLyte 520 FRET substrate, pH 7.5, 25C. On the procedure: as §2, §3

The IC50 is the point on the concentration scale where inhibition reaches its midpoint. Read a low IC50 as higher potency.

T2 sequence (P07711 114-333): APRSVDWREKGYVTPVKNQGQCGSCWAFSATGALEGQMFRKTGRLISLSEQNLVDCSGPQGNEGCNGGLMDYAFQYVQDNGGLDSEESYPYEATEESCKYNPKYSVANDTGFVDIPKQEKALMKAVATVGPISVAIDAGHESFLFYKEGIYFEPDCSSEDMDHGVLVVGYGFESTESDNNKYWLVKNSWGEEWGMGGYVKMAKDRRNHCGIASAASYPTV
T1 sequence (P25774 115-331): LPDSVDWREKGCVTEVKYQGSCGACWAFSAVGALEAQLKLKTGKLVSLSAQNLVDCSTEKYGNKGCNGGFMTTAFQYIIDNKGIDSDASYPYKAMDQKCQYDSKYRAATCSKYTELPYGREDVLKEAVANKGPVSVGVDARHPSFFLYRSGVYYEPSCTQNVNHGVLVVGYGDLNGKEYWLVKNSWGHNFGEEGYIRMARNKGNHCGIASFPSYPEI

Turning to `CC(C)[C@@H]1NC(=O)/C=C/[C@@H](NC(=O)[C@H](C)NC(=O)OC(C)(C)C)COC(=O)[C@H](Cc2ccc(O)cc2)NC1=O` [Compound 13, tert-butyl ((s)-1-(((3S,6S,11R,E)-3-(4-hydroxybenzyl)-6-isopropyl-2,5,8-trioxo-1-oxa-4,7-diazacyclododec-9-en-11-yl)amino)-1-oxopropan-2-yl)carbamate], the IC50 against Human Cathepsin S is under 3 µM; on Human Cathepsin L, under 3 µM; at Human Cathepsin B it was under 3 µM; against Human Cathepsin K it was under 3 µM; at Human Calpain 1/NS1, over 10 µM; against Human Calpain 9/NS1, over 10 µM. Also, the IC50 at Human Calpain 2/NS1 is over 10 µM.
With `CC(C)[C@@H]1NC(=O)/C=C/[C@@H](NC(=O)[C@H](Cc2ccccc2)NC(=O)OC(C)(C)C)COC(=O)[C@H](Cc2ccc(O)cc2)NC1=O` [Compound 14, tert-butyl ((s)-1-(((3S,6S,11R,E)-3-(4-hydroxybenzyl)-6-isopropyl-2,5,8-trioxo-1-oxa-4,7-diazacyclododec-9-en-11-yl)amino)-1-oxo-3-phenylpropan-2-yl)carbamate], the IC50 is under 3 µM against Human Cathepsin S; under 3 µM on Human Cathepsin L; 3 to 10 µM at Human Cathepsin B; under 3 µM at Human Cathepsin K; over 10 µM against Human Calpain 1/NS1; over 10 µM at Human Calpain 9/NS1. The compound also showed an IC50 against Human Calpain 2/NS1 of over 10 µM.
In the case of `CC(C)[C@@H]1NC(=O)/C=C/[C@@H](NC(=O)OC(C)(C)C)COC(=O)[C@H](C)NC1=O` [Compound 15, tert-butyl ((3S,6S,11R,E)-6-isopropyl-3-methyl-2,5,8-trioxo-1-oxa-4,7-diazacyclododec-9-en-11-yl)carbamate], the IC50 against Human Cathepsin S was under 3 µM; on Human Cathepsin L, under 3 µM; at Human Cathepsin B, 3 to 10 µM; against Human Cathepsin K it was under 3 µM; on Human Calpain 1/NS1, over 10 µM; against Human Calpain 9/NS1 it was over 10 µM. Moreover, on Human Calpain 2/NS1, the IC50 was over 10 µM.
`CCCCCC/C=C\CC(=O)N[C@@H](Cc1ccc(O)cc1)C(=O)N[C@H](C(=O)N[C@@H]1/C=C/C(=O)N[C@@H](C(C)C)C(=O)N[C@@H](C)C(=O)OC1)C(C)C` [Compound 16, (Z)—N—((S)-3-(4-hydroxyphenyl)-1-(((S)-1-(((3S,6S,11R,E)-6-isopropyl-3-methyl-2,5,8-trioxo-1-oxa-4,7-diazacyclododec-9-en-11-yl)amino)-3-methyl-1-oxobutan-2-yl)amino)-1-oxopropan-2-yl)dec-3-enamide]: the IC50 is under 3 µM against Human Cathepsin S; under 3 µM against Human Cathepsin L; under 3 µM on Human Cathepsin B; under 3 µM against Human Cathepsin K; under 3 µM on Human Calpain 1/NS1; over 10 µM against Human Calpain 9/NS1. Further, the IC50 against Human Calpain 2/NS1 was under 3 µM.
With `CC(C)[C@@H]1NC(=O)/C=C/[C@@H](NC(=O)[C@@H](NC(=O)[C@H](Cc2ccc(O)cc2)NC(=O)OC(C)(C)C)C(C)C)COC(=O)[C@H](C)NC1=O` [Compound 17, Tert-butyl ((S)-3-(4-hydroxyphenyl)-1-(((S)-1-(((3S,6S,11R,E)-6-isopropyl-3-methyl-2,5,8-trioxo-1-oxa-4,7-diazacyclododec-9-en-11-yl)amino)-3-methyl-1-oxobutan-2-yl)amino)-1-oxopropan-2-yl)carbamate], the IC50 was under 3 µM against Human Cathepsin S; under 3 µM against Human Cathepsin L; under 3 µM on Human Cathepsin B; under 3 µM on Human Cathepsin K; under 3 µM at Human Calpain 1/NS1; over 10 µM on Human Calpain 9/NS1. On Human Calpain 2/NS1, this compound displayed an IC50 of under 3 µM.
As for `CCCCCC/C=C\CC(=O)N[C@@H](Cc1ccc(O)cc1)C(=O)N[C@H](C(=O)N[C@@H]1/C=C/C(=O)N[C@@H](C(C)C)C(=O)N[C@@H](Cc2ccc(O)cc2)C(=O)OC1)C(C)C` [Compound 18, (Z)—N—((S)-1-(((S)-1-(((3S,6S,11R,E)-3-(4-hydroxybenzyl)-6-isopropyl-2,5,8-trioxo-1-oxa-4,7-diazacyclododec-9-en-11-yl)amino)-3-methyl-1-oxobutan-2-yl)amino)-3-(4-hydroxyphenyl)-1-oxopropan-2-yl)dec-3-enamide], the IC50 against Human Cathepsin S was under 3 µM; against Human Cathepsin L, under 3 µM; on Human Cathepsin B it was under 3 µM; against Human Cathepsin K, under 3 µM; against Human Calpain 1/NS1, under 3 µM; at Human Calpain 9/NS1 it was over 10 µM. Besides, the IC50 against Human Calpain 2/NS1 is under 3 µM.
